According to patent US8470594B2, “Methods for identifying agents that affect the survival of motor neurons” (President and Fellows of Harvard College, priority 2008, dated 2013):

B1: GMFb: glial maturation factor beta, shown to induce a pro-inflammatory state in astrocytes; from Peprotech (protein, UniProt Q9CQI3 2-142, looked up)
Glia maturation factor beta: SESLVVCDVAEDLVEKLRKFRFRKETHNAAIIMKIDKDERLVVLDEELEGVSPDELKDELPERQPRFIVYSYKYQHDDGRVSYPLCFIFSSPVGCKPEQQMMYAGSKNKLVQTAELTKVFEIRNTEDLTEEWLREKLGFFH
B2: Mcp2: cytokine over expressed in mutant glia; from Peprotech (protein, UniProt Q9Z121 24-97, looked up)
C-C motif chemokine 8: GPDKAPVTCCFHVLKLKIPLRVLKSYERINNIQCPMEAVVFQTKQGMSLCVDPTQKWVSEYMEILDQKSQILQP

How the values were obtained:
[1] = tested on: Hb9::GFP human ES cell-derived motor neurons; assay: Survival of Hb9::GFP human ES cell-derived motor neurons in co-culture with non-transgenic (WT) glia; assay type: cell-based; settings: non-transgenic (WT) mouse glia pretreated 1 day, 20 days of treatment; MCP2, Cxc17, Rantes 100 ng/ml; GMFb 250 ng/ml; PGD2 10 μM; Shh agonist 11M [sic]; n=3
Description: (§1) Differentiation of human Embryonic Stem Cells into motor neurons. For differentiation into motor neurons, the cells were allowed to reach 80-90% confluency, washed once with PBS, and then incubated for 15 minutes at 37° C. in a solution of 1 g/L Collagenase IV (GIBCO) in DMEM-F12 (GIBCO).
After 24 hours, the cells had aggregated to form embryoid bodies (EBs), and the media was changed to remove debris by centrifuging the EBs and resuspending in fresh in human ES cell media without bFGF2 or plasmanate in low attachment 6-well plates. EBs were cultured as such for 13 more days, with half of the media changed every two days, and a complete media change every week. After 14 days, the EBs were induced toward a caudal and ventral identity using retinoic acid (1 μM, Sigma) and an agonist of the Shh signaling pathway (1 μM) in N2 media: 1:1 DMEM:F-12+Glutamate (Gibco), 10,000 units Penicillin and 1 mg/mL Streptomicin (Gibco), 1% N2 Supplement (Gibco), 0.2 mM ascorbic acid (Sigma-Aldrich), 0.16% D-(+)-Glucose (Sigma-Aldrich), BDNF (10 ng/ml, R&D Systems), for another 14 days. The EBs were then matured for a final 14 days in N2 media with GNDF (10 ng/mL, R&D Systems). After 42 days of differentiation, the EBs were dissociated. To dissociate the EBs, they were centrifuged at 1000 rpm for 5 min in a 15 ml falcon tube, and then washed once with PBS to eliminate residual media. The EBs were then incubated for 60 minutes at 37° C. in Earle's Balanced Salt Solution with 20 units of papain and 1000 units of Deoxyribonuclease I (Worthington Biochemical Corporation). EBs were triturated using a 2 mL serological pipette every 15-20 minutes during this incubation. When an almost single cell suspension was achieved, the cells were centrifuged for 5 minutes at 1000 RPM. The resulting cell pellet was washed once with PBS and then resuspended in N2 media with neurotrophic factors (GDNF, and BDNF (10 ng/ml, R&D Systems)). These cells were then counted and plated on Poly-D-Lysine/Laminin CultureSlides (BD biosciences) or on a layer of primary glial cells. Depending on the experiment, motor neurons or interneurons were counted 10 or 20 days after plating.
Primary Glial Cultures. P1-P3 mouse pups transgenic for SOD1G93A, SOD1WT or non-transgenic pups were sacrificed by using an approved method of euthanasia. Under a dissection microscope, the parenquima were isolated and the meninges were carefully stripped away with fine forceps. The tissue was then dissected into small pieces and transferred to a solution containing 12 ml of HBSS, 1.5 ml of trypsin (GIBCO) and 1% DNAse (Sigma) and incubated at 37° C. for 15 min, swirling the mixture periodically. The supernatant containing the dissociated cells was then collected and 3 ml of serum was added to inhibit trypsin activity.
The cells were then centrifuged at 1000 rpm for 5 min, resuspended in Glia medium: (Minimun Essential Medium with Earl's salts (GIBCO), D-(+)-Glucose 20% (Sigma), Penicillin-streptomycin (GIBCO), 10% Horse Serum (GIBCO)) and plated at the concentration of 80,000 cells per mL in T75 flasks (Falcon). After the glia reached confluency, they were replated onto Poly-D-Lysine/Laminin CultureSlides (BD biosciences).
Non-transgenic glia were individually pretreated for 1 day with either one of the three cytokines MCP2, Cxc17, or Rantes; with GMFb; an agonist of SHH pathway; or with PGD2.

[2] = tested on: Hb9::GFP human ES cell-derived motor neurons; settings: SOD1G93A glia pretreated 1 day, MK 0524 10 μM, 20 days; p<0.05; n=3
Description: as §1
After 24 hours, the cells had aggregated to form embryoid bodies (EBs), and the media was changed to remove debris by centrifuging the EBs and resuspending in fresh in human ES cell media without bFGF2 or plasmanate in low attachment 6-well plates. EBs were cultured as such for 13 more days, with half of the media changed every two days, and a complete media change every week. After 14 days, the EBs were induced toward a caudal and ventral identity using retinoic acid (1 μM, Sigma) and an agonist of the Shh signaling pathway (1 μM) in N2 media: 1:1 DMEM:F-12+Glutamate (Gibco), 10,000 units Penicillin and 1 mg/mL Streptomicin (Gibco), 1% N2 Supplement (Gibco), 0.2 mM ascorbic acid (Sigma-Aldrich), 0.16% D-(+)-Glucose (Sigma-Aldrich), BDNF (10 ng/ml, R&D Systems), for another 14 days. […] These cells were then counted and plated on Poly-D-Lysine/Laminin CultureSlides (BD biosciences) or on a layer of primary glial cells. Depending on the experiment, motor neurons or interneurons were counted 10 or 20 days after plating. […]

Row | Molecule | number of GFP positive motor neurons compared to the control condition [1] | increase in the number of GFP positive neurons relative to untreated neurons plated on the same glia [2] [%]
1 | CCCCC[C@H](O)/C=C/[C@H]1C(=O)C[C@H](O)[C@@H]1C/C=C\CCCC(=O)O [PGD2, prostaglandin D2] | 19%+/−2% | –
2 | Rantes | 108%+/−20% | –
3 | CS(=O)(=O)c1cc(F)cc2c3c(n(Cc4ccc(Cl)cc4)c12)[C@@H](CC(=O)O)CC3 [MK 0524] | – | 32
4 | CNC1CCC(N(Cc2cccc(-c3ccncc3)c2)C(=O)c2sc3ccccc3c2Cl)CC1 (stereo not drawn) [SHH agonist] | 97%+/−12% | –
5 | B1 | 95%+/−9% | –
6 | B2 | 103%+/−8% | –
